From PubChem BioAssay (NCI)
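These data come from cells grown in 96-well plates and exposed to compound for 48 hours at five concentrations. GI50 marks 50% less growth. The concentration for full growth arrest is given as TGI.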

Key:
Test in all cases: NCI anticancer screen, dose series, 48 h
[1] = tested on: RXF 393 renal
[2] = tested on: NCI-H460 lung
[3] = tested on: HOP-62 NSCLC
[4] = tested on: IGROV1 ovarian
[5] = tested on: HOP-92 NSCLC
[6] = tested on: LOX IMVI melanoma
[7] = tested on: CCRF-CEM leukemia
[8] = tested on: TK-10 renal
[9] = tested on: U251 CNS
[10] = tested on: M14 melanoma

SMILES | TGI [1] | TGI [2] | TGI [3] | TGI [4] | TGI [5] | TGI [6] | TGI [7] | TGI [8] | TGI [9] | TGI [10] | GI50 [1] | GI50 [2] | GI50 [3] | GI50 [4] | GI50 [5] | GI50 [6] | GI50 [7] | GI50 [8] | GI50 [9] | GI50 [10]
C/C(=N/O)C1CC=C(S(=O)(=O)c2ccccc2)C1 (centres undefined) | > 100 µM | > 100 µM | > 100 µM | > 100 µM | > 100 µM | > 100 µM | > 100 µM | > 100 µM | > 100 µM | > 100 µM |  |  |  |  |  |  |  |  |  | 
O=C1NC(=NCC(CO)c2ccccc2)S/C1=C\c1ccc2ncccc2c1 (centres undefined) | > 25 µM | > 25 µM | > 25 µM | > 25 µM | > 25 µM | > 25 µM | > 25 µM | > 25 µM | > 25 µM | > 25 µM | > 20.3 µM | > 16.1 µM | 23.9 µM | 19 µM | > 25 µM | 17.4 µM | 19.5 µM | > 21.8 µM | 9.91 µM | > 25 µM
CCCc1cc(=O)oc2c(C(=O)CC(C)C)c(O)c(CC=C(C)C)c(O)c12 | 45.2 µM | > 50 µM | > 50 µM | > 50 µM | 4.15 µM | > 50 µM | > 50 µM | > 50 µM | > 50 µM | > 50 µM | 13.7 µM | 8.03 µM | 17.6 µM | 15.4 µM | 1.25 µM | 12.9 µM | 4.97 µM | 12.2 µM | 9.19 µM | 10.3 µM
O=C(CCCn1c2c(sc3ncccc32)c(=O)n2nnc(-c3ccccc3)c12)NCCc1cnc[nH]1 | 34 µM | 13.1 µM | 32 µM | 27.6 µM | 39.5 µM | 26.6 µM | 4.48 µM | 27.9 µM | 14.9 µM | 19.4 µM | 14.8 µM | 3.66 µM | 16.5 µM | 9.54 µM | 17 µM | 12.4 µM | 0.222 µM | 13.6 µM | 1.28 µM | 3.5 µM
CCOP(=O)(CCP(=O)(OCC)OCC)OCC.C[CH2][Sn]([Cl])([Cl])[CH2]C | 30.1 µM | > 100 µM | > 100 µM | > 100 µM | 39.2 µM | 47.9 µM | 50.5 µM | 52 µM | > 69.3 µM | > 57.8 µM | 15.3 µM | > 81.8 µM | > 91.3 µM | > 100 µM | 19.7 µM | 22 µM | 15.5 µM | 30.6 µM | 37.9 µM | 41.4 µM
O=C(CC(=O)N1N=C(n2ccc3ccccc32)CC1c1ccccc1)Nc1cccc(Cl)c1 (centres undefined) | > 100 µM | > 100 µM | > 100 µM | > 100 µM | > 100 µM | > 100 µM | > 100 µM | > 100 µM | > 100 µM | > 100 µM |  |  |  |  |  |  |  |  |  | 
NC(=O)c1ccccc1NC(=O)C(=O)C(C(=O)c1ccc2ccccc2c1)C1OC(=O)c2ccccc21 (centres undefined) | 16.8 µM | > 100 µM | 24.2 µM | 46.6 µM | 32.3 µM | 29.9 µM | 77.6 µM | 48.9 µM | 25.2 µM | 30 µM |  |  |  |  |  |  |  |  |  | 
O=C(CCc1nnc2s/c(=C\c3ccccc3)c(=O)n12)Nc1cc(Cl)ccc1Cl | > 100 µM | > 100 µM | > 100 µM | > 100 µM | > 100 µM | > 100 µM | > 100 µM | > 100 µM | > 100 µM | > 100 µM |  |  |  |  |  |  |  |  |  | 
Cn1cc(-c2csc(-c3c[nH]c4ncccc34)n2)c2cc(Br)cnc21 | 8.63 µM | > 100 µM | 11.6 µM | > 100 µM | > 100 µM | > 100 µM | > 100 µM | > 100 µM | > 100 µM | > 100 µM | 2.05 µM | 2.98 µM | 2.39 µM | 2.21 µM | 5.03 µM | 4.26 µM | 6.81 µM | 3.77 µM | 2.7 µM | 4.06 µM
Fc1ccc(-c2nc(-c3nc4ccc(Cl)cc4[nH]3)cc3c2[nH]c2ccccc23)cc1 | 4.66 µM | 10.5 µM | 16.5 µM | 12.2 µM | 6.18 µM | 6.63 µM | 20.3 µM | 9.86 µM | 18 µM | 11.4 µM | 1.62 µM | 2.97 µM | 3.87 µM | 2.89 µM | 1.56 µM | 2.41 µM | 3.37 µM | 3.35 µM | 3.31 µM | 3.05 µM
O=C1C2=C(C(=O)c3c(O)ccc(O)c31)N(c1ccc(N3CCOCC3)nc1)Cc1ccccc1O2 | 0.308 µM | 4.06 µM | 3.97 µM | 1.14 µM | 0.469 µM | 0.517 µM |  | 0.947 µM | 2.21 µM | 0.894 µM | 0.148 µM | 1.31 µM | 1.52 µM | 0.277 µM | 0.202 µM | 0.188 µM | 0.0778 µM | 0.339 µM | 0.603 µM | 0.276 µM
C=CCN1C(=O)/C(=c2\sc3n(c2=O)C2C(NN=3)N(CC)C(=O)N2CC)c2ccccc21 (centres undefined) | 1.94 µM | > 100 µM | > 53.5 µM | > 100 µM | 9.2 µM | > 100 µM | > 100 µM | > 20.5 µM | > 33.5 µM | > 100 µM | 0.328 µM | 0.413 µM | 1.02 µM | 0.978 µM | 0.842 µM | 0.698 µM | 0.469 µM | 1.85 µM | 0.726 µM | 0.446 µM
CCc1cccc(C(C)CC)c1N=C(NC(=O)c1ccccc1C(=O)NC(=Nc1c(CC)cccc1C(C)CC)SC)SC (centres undefined) | > 100 µM | > 100 µM | > 100 µM | > 100 µM | 39.2 µM | > 100 µM | > 100 µM | 79 µM | 79.5 µM | 44.5 µM |  |  |  |  |  |  |  |  |  | 
O=C1Cc2cc(CCn3ccnc3)c(Cl)cc2N1 | > 100 µM | > 100 µM | > 100 µM | > 100 µM | 91.5 µM | > 100 µM | > 100 µM | > 100 µM | > 100 µM | 39.8 µM | 6.28 µM | 16.1 µM | 33.2 µM | > 100 µM | 3.54 µM | 85.3 µM | 3.37 µM | > 100 µM | 8.24 µM | 3.46 µM
